Reference: US10175256B2, “Compositions and methods utilizing lysophosphatidylcholine scaffolds” (National University Of Singapore, priority 2013, dated 2019)
Values joined by “and” are separate entries in the source; they are usually repeats but may differ in a detail not shown here. Equal values may be shown once.

What was measured:
mouse Mfsd2a [1] = experiment: Cell-based free fatty acid transport/uptake in Mfsd2a expressing HEK293 cells (mass spectrometry, TLC; Table 1); details: MS, replicate columns; for Amount of each lipid species normalized to internal standard, mol percent in total phospholipid analysed / Amount of lipid species, mol percent in total phospholipid analysed: mock HEK293 cells
Method: (§1) FIG. 12. […] Std: free [^14C]-DHA. b. TLC analysis of phospholipids and neutral lipids of HEK293 cells transfected with mouse Mfsd2a and mutants after overnight incubation with 100 μM [^14C]-oleate. TLC protocol used was described in Methods. PC: phosphatidylcholine, PE: phosphatidylethanolamine, TAG: triglyceride, CE: cholesteryl ester.
(§2) For tissue lipid analysis, brain, liver, and heart of female WT and KO mice with age of 7-8 weeks born to HET mothers, and brains from e18.5 embryos were collected and immediately frozen with liquid nitrogen until extraction. Lipid extraction was followed by chloroform/methanol method. For cell-based free fatty acid transport, lipids from HEK293 cells expressing mouse Mfsd2a and mock controls after overnight treatment with 100 μM docosahexaenoic, arachidonic, eicosapentaenoic, alpha-linolenic, linoleic, oleic, palmitic acids in BSA complex were extracted using HIP buffer (hexane:iso-propanol 3:2, per volume) and dried under N2 gas. Phospholipid species were measured by high performance liquid chromatography (HPLC) 1100 system (Agilent) coupled with an Triple Quadrupole/Ion Trap mass spectrometer (4000Qtrap, Applied Biosystem). Levels of individual phospholipid species were analyzed as described previously and quantified using spiked internal standards that includes PC-14:0/14:0, PE-14:0/14:0, PS-14:0/14:0 (Avanti Polar Lipids, Alabaster, Ala., USA), and dioctanoyl PI (Echelon Biosciences, Inc., Salt Lake City, Utah, USA).

mouse Mfsd2a [2] = target: T1, mouse Mfsd2a (Mus musculus, UniProt Q9DA75); experiment: as above; details: replicate columns; for Amount of lipid species, mol percent in total phospholipid analysed / Amount of each lipid species normalized to internal standard, mol percent in total phospholipid analysed: Mfsd2a expressing HEK293 cells
T1 construct: expressed in transfected cells; host or cells: HEK293
T1 sequence (Q9DA75 1-534): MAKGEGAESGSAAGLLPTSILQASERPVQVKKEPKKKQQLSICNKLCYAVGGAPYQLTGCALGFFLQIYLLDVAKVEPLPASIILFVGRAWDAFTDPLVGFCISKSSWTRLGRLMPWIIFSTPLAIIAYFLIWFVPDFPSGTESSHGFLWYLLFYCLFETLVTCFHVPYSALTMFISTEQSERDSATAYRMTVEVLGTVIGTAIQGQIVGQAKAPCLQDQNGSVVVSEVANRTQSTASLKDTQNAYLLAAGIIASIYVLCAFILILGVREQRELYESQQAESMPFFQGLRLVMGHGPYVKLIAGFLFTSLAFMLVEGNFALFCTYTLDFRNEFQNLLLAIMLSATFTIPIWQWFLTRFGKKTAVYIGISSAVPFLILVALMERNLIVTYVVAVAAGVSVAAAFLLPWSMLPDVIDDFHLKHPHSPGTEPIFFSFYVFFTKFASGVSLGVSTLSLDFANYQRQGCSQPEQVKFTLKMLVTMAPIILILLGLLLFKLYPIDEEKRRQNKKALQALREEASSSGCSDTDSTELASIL
Method: as §1, §2

[3] = mock HEK293 cells incubated with 100 uM Arachidonic fatty acid/BSA complex overnight
[4] = 100 uM Docosahexaenoic acid/BSA complex overnight
[5] = 100 uM Eicosapentaenoic acid/BSA complex overnight
[6] = 100 uM Oleic fatty acid/BSA complex overnight
[7] = Mfsd2a expressing HEK293 cells incubated with 100 uM Arachidonic fatty acid/BSA complex overnight, MS
[8] = 100 uM Alpha-linolenic fatty acid/BSA complex overnight
[9] = 100 uM Linoleic fatty acid/BSA complex overnight
[10] = 100 uM Docosahexaenoic acid/BSA complex overnight, MS
[11] = 100 uM Eicosapentaenoic acid/BSA complex overnight, MS
[12] = 100 uM Oleic fatty acid/BSA complex overnight, MS

Row | Compound | Amount of each lipid species, mol percent in total phospholipid analysed (mouse Mfsd2a [1]; [3]) | Amount of each lipid species normalized to internal standard, mol percent in total phospholipid analysed (mouse Mfsd2a [1]; [4]) | Amount of each lipid species normalized to internal standard, mol percent in total phospholipid analysed (mouse Mfsd2a [1]; [5]) | Amount of lipid species, mol percent in total phospholipid analysed (mouse Mfsd2a [1]; [6]) | Amount of each lipid species, mol percent in total phospholipid analysed (mouse Mfsd2a [2]; [7]) | Amount of lipid species, mol percent in total phospholipid analysed (mouse Mfsd2a [2]; [8]) | Amount of lipid species, mol percent in total phospholipid analysed (mouse Mfsd2a [2]; [9]) | Amount of each lipid species normalized to internal standard, mol percent in total phospholipid analysed (mouse Mfsd2a [2]; [10]) | Amount of each lipid species normalized to internal standard, mol percent in total phospholipid analysed (mouse Mfsd2a [2]; [11]) | Amount of lipid species, mol percent in total phospholipid analysed (mouse Mfsd2a [2]; [12]) | Amount of each lipid species, mol percent in total phospholipid analysed (mouse Mfsd2a [1]; mock HEK293 cells incubated with 100 uM Eicosapentaenoic fatty acid/BSA complex overnight) | Amount of lipid species, mol percent in total phospholipid analysed (mouse Mfsd2a [1]; [9]) | Amount of each lipid species, mol percent in total phospholipid analysed (mouse Mfsd2a [2]; Mfsd2a expressing HEK293 cells incubated with 100 uM Eicosapentaenoic fatty acid/BSA complex overnight, MS) | Amount of lipid species, mol percent in total phospholipid analysed (mouse Mfsd2a [2]; 100 uM Linoleic fatty acid/BSA complex overnight, MS)
1 | CCCCCCCCCCCCCCCC(=O)OC[C@@H](O)COP(=O)([O-])OCC[N+](C)(C)C [LysoPC16:0] | 0.02322 mol percent and 0.02517 mol percent and 0.02807 mol percent | 0.03115 mol percent and 0.02846 mol percent and 0.03055 mol percent | 0.02508 mol percent and 0.02349 mol percent and 0.02482 mol percent | 0.01539 mol percent and 0.01577 mol percent and 0.0163 mol percent | 0.02415 mol percent and 0.0241 mol percent and 0.02855 mol percent and 0.02172 mol percent | 0.02586 mol percent and 0.02533 mol percent and 0.02841 mol percent and 0.02293 mol percent | 0.02176 mol percent and 0.01959 mol percent and 0.02134 mol percent and 0.02259 mol percent | 0.03726 mol percent and 0.03481 mol percent and 0.03081 mol percent and 0.02684 mol percent | 0.02694 mol percent and 0.02534 mol percent and 0.02456 mol percent and 0.02331 mol percent | 0.01777 mol percent and 0.01495 mol percent and 0.01595 mol percent and 0.01964 mol percent |  |  |  | 
2 | CCCCCCCCCCCCCCCCCC/C=C\OC[C@@H](O)COP(=O)(O)OCCN [LysoPE20:0p] | 0.2922 mol percent and 0.183 mol percent and 0.1158 mol percent |  |  |  | 0.3303 mol percent and 0.2723 mol percent and 0.1846 mol percent and 0.2172 mol percent |  |  |  |  |  |  |  |  | 
3 | CCCCCCCCCCCCCCCC/C=C\OC[C@@H](O)COP(=O)(O)OCCN [Lyso PE18:0p] |  | 0.3791 mol percent and 0.5478 mol percent and 0.5875 mol percent | 0.7711 mol percent and 0.3952 mol percent and 0.4625 mol percent | 0.336 mol percent and 0.5628 mol percent and 0.5097 mol percent |  | 0.5329 mol percent and 0.4653 mol percent and 0.37 mol percent and 0.5715 mol percent | 0.3438 mol percent and 0.3054 mol percent and 0.2525 mol percent and 0.1986 mol percent | 0.3998 mol percent and 0.8078 mol percent and 0.4971 mol percent and 0.5526 mol percent | 0.4834 mol percent and 0.7431 mol percent and 0.4828 mol percent and 0.4728 mol percent | 0.4754 mol percent and 0.4091 mol percent and 0.4604 mol percent and 0.341 mol percent |  |  |  | 
4 | CCCCCCCCCCCCCCCC(=O)OC[C@@H](O)COP(=O)(O)OC1[C@H](O)[C@H](O)C(O)[C@H](O)[C@H]1O (stereo partly shown) [LPI 16:0] | 0.003611 mol percent and 0.003895 mol percent and 0.00338 mol percent |  |  |  | 0.003583 mol percent and 0.003359 mol percent and 0.003156 mol percent and 0.002319 mol percent |  |  |  |  |  |  |  |  | 
5 | CCCCCCCCCCCCCCCCCCOC[C@@H](O)COP(=O)([O-])OCC[N+](C)(C)C [LysoPC18:0e] | 0.00137 mol percent and 0.002231 mol percent and 0.001637 mol percent | 0.002177 mol percent and 0.002156 mol percent and 0.002215 mol percent | 0.001609 mol percent and 0.002109 mol percent and 0.001671 mol percent | 0.001802 mol percent and 0.00157 mol percent and 0.001773 mol percent | 0.001403 mol percent and 0.001832 mol percent and 0.001957 mol percent and 0.00156 mol percent | 0.001528 mol percent and 0.001007 mol percent and 0.001383 mol percent and 0.001468 mol percent | 0.00128 mol percent and 0.001885 mol percent and 0.001443 mol percent and 0.001726 mol percent | 0.002316 mol percent and 0.001944 mol percent and 0.002079 mol percent and 0.002217 mol percent | 0.002414 mol percent and 0.001699 mol percent and 0.001986 mol percent and 0.001832 mol percent | 0.002105 mol percent and 0.002254 mol percent and 0.001084 mol percent and 0.001841 mol percent |  |  |  | 
6 | CCCCCCCCCCCCCCCC/C=C\OC[C@@H](O)COP(=O)(O)OCCN [LysoPE18:0p] | 0.6519 mol percent and 0.416 mol percent and 0.215 mol percent |  |  |  | 0.5873 mol percent and 0.5865 mol percent and 0.323 mol percent and 0.5348 mol percent |  |  |  |  |  |  |  |  | 
7 | PE38:5 | 1.648 mol percent and 1.509 mol percent and 1.4 mol percent | 0.6844 mol percent and 0.8632 mol percent and 0.5129 mol percent |  | 0.809 mol percent and 0.6822 mol percent and 0.456 mol percent | 1.517 mol percent and 1.746 mol percent and 1.538 mol percent and 1.292 mol percent | 2.013 mol percent and 1.902 mol percent and 1.704 mol percent and 1.689 mol percent |  | 0.6996 mol percent and 0.7565 mol percent and 0.8996 mol percent and 0.9147 mol percent |  | 0.6441 mol percent and 0.6477 mol percent and 0.57 mol percent and 0.5862 mol percent | 1.214 mol percent and 0.8982 mol percent and 0.9456 mol percent | 0.9188 mol percent and 0.8836 mol percent and 0.7914 mol percent | 0.8525 mol percent and 0.7862 mol percent and 1.249 mol percent and 0.8033 mol percent | 0.714 mol percent and 1.007 mol percent and 0.7471 mol percent and 0.7035 mol percent
8 | CCCCCCCCCCCCCCCCCC(=O)OC[C@@H](O)COP(=O)(O)OCCN [LysoPE18:0] | 0.1798 mol percent and 0.2163 mol percent and 0.1654 mol percent | 0.2527 mol percent and 0.249 mol percent and 0.1539 mol percent | 0.2356 mol percent and 0.2515 mol percent and 0.1233 mol percent | 0.168 mol percent and 0.1023 mol percent and 0.04024 mol percent | 0.2569 mol percent and 0.2304 mol percent and 0.2461 mol percent and 0.117 mol percent | 0.3947 mol percent and 0.2832 mol percent and 0.2186 mol percent and 0.3429 mol percent | 0.1058 mol percent and 0.1018 mol percent and 0.1894 mol percent and 0.0869 mol percent | 0.1666 mol percent and 0.2308 mol percent (2×) and 0.1334 mol percent | 0.1092 mol percent and 0.307 mol percent and 0.1931 mol percent and 0.2135 mol percent | 0.09201 mol percent and 0.1193 mol percent and 0.148 mol percent and 0.05384 mol percent |  |  |  | 
